Laboratory results taken from patent publication US4732972A, “Polypeptides having growth hormone releasing activity” (Hoffmann-La Roche Inc., priority 1985, dated 1988).
Ends that are not written are not given here.

How the values were obtained:
growth hormone release = conditions: compared with amidated 44 amino acid GRF; cited from earlier work
rat pituitary cells = assay: Growth hormone release in rat pituitary cells in tissue culture (RIA for rat growth hormone); assay type: cell-based; conditions: for Growth Hormone Released, Percentage of Control / Growth Hormone Released: 3 hours incubation; for Growth Hormone Released: control 82
Method: The biological activity of (Leu^27)-GRF(1-44)-OH was compared with that of natural GRF(1-44)-NH2 which was isolated from a human pancreatic tumor of an individual suffering from acromegaly (Salk Institute standard hp-GRF-NH2 (NL-A-10)). The assay for biological activity, which is based on the ability to stimulate production of growth hormone in rat pituitary cells in tissue culture, was performed in the following manner.
Pituitaries from 30-40 male Sprague-Dawley rats (175 g) were removed aseptically after decapitation. The anterior lobes were collected, washed 3 times in sterile Hepes buffer (0.025M) (pH 7.35) and dispersed at 37° C. in 20-30-ml Hepes buffer (pH 7.35) containing collagenase (4 mg per ml) and Dispase (Protease grade II, 2 mg per ml). After gentle 100-110-min vortexing and trituration by Pasteur pipette, the dispersed cells were separated by centrifugation (150×g, 4 min) and re-suspended in Hepes buffer containing neuraminidase (8 μg/ml), and 200 μg/ml ethylenedinitrilotetraacetic acid (EDTA) disodium salt pH 7.35, for 10 min. The cells were washed twice with plating medium and plated on multiwell-plates (1.5×10^5 cells per ml) using the following defined medium: F-12/DMEM/(6:3:1) (Gibco: 430-1700/430-1600/320-2591) with 2 g BSA/l., 2.38 g Hepes/l, 50 mg Garamycin/l (Schering Co.). The medium in each well was supplemented either with (Leu^27)-GRF(1-44)-OH or natural GRF(1-44)-NH2 at concentrations ranging from 3.1 to 200 fmol. per ml. of medium. Control wells contained no supplement. Plating was done with this medium added with 2% fetal calf serum to ensure rapid fixation of the cells. On the fourth day the cells were washed twice with the defined medium without fetal calf serum. Finally 900 μl of defined medium was added to each well plus 100 μl of the same medium containing each individual treatment, in triplicate. After 3 hours of incubation the medium was collected and diluted as required to conduct radioimmunoassays (RIAs) for rat growth hormone. RIAs were conducted using Sinha's anti-murine GH immune serum.

Compound | Biological activity after removal of the amide group (in words) (growth hormone release) | Relative potency compared to the Salk Institute standard (rat pituitary cells; computerized analysis of the data of Tables 1 and 2, standard = GRF(1-44)-NH2) | Growth hormone releasing activity compared with GRF(1-44)-NH2 (in words) (rat pituitary cells; data of Tables 1 and 2) | Growth Hormone Released, Percentage of Control (rat pituitary cells; dose 3.1 f mol./ml.) | Growth Hormone Released (rat pituitary cells; dose 3.1 f mol./ml.) | Growth Hormone Released, Percentage of Control (rat pituitary cells; dose 6.3 f mol./ml.) | Growth Hormone Released (rat pituitary cells; dose 6.3 f mol./ml.) | Growth Hormone Released, Percentage of Control (rat pituitary cells; dose 12.5 f mol./ml.) | Growth Hormone Released (rat pituitary cells; dose 12.5 f mol./ml.) | Growth Hormone Released, Percentage of Control (rat pituitary cells; dose 25.0 f mol./ml.) | Growth Hormone Released (rat pituitary cells; dose 25.0 f mol./ml.) | Growth Hormone Released, Percentage of Control (rat pituitary cells; dose 50.0 f mol./ml.) | Growth Hormone Released (rat pituitary cells; dose 50.0 f mol./ml.) | Growth Hormone Released, Percentage of Control (rat pituitary cells; dose 100.0 f mol./ml.) | Growth Hormone Released (rat pituitary cells; dose 100.0 f mol./ml.) | Growth Hormone Released, Percentage of Control (rat pituitary cells; dose 200.0 f mol./ml.) | Growth Hormone Released (rat pituitary cells; dose 200.0 f mol./ml.) | Growth hormone released in vitro relative to the amount of peptide administered (rat pituitary cells; in vitro)
free acid form of the 44 amino acid GRF: 44 amino acid GRF with the amide group removed, free acid form (YADAIFTNSYRKVLGQLSARKLLQDIMSRQQGESNQERGARARL-OH; UniProt P01286 32-75, looked up) | significant loss of biological activity | – | – | – | – | – | – | – | – | – | – | – | – | – | – | – | – | –
CC[C@H](C)[C@H](NC(=O)[C@H](C)NC(=O)[C@H](CC(=O)O)NC(=O)[C@H](C)NC(=O)[C@@H](N)Cc1ccc(O)cc1)C(=O)N[C@@H](Cc1ccccc1)C(=O)N[C@H](C(=O)N[C@@H](CC(N)=O)C(=O)N[C@@H](CO)C(=O)N[C@@H](Cc1ccc(O)cc1)C(=O)N[C@@H](CCCNC(=N)N)C(=O)N[C@@H](CCCCN)C(=O)N[C@H](C(=O)N[C@@H](CC(C)C)C(=O)NCC(=O)N[C@@H](CCC(N)=O)C(=O)N[C@@H](CC(C)C)C(=O)N[C@@H](CO)C(=O)N[C@@H](C)C(=O)N[C@@H](CCCNC(=N)N)C(=O)N[C@@H](CCCCN)C(=O)N[C@@H](CC(C)C)C(=O)N[C@@H](CC(C)C)C(=O)N[C@@H](CCC(N)=O)C(=O)N[C@@H](CC(=O)O)C(=O)N[C@H](C(=O)N[C@@H](CC(C)C)C(=O)N[C@@H](CO)C(=O)N[C@@H](CCCNC(=N)N)C(=O)N[C@@H](CCC(N)=O)C(=O)N[C@@H](CCC(N)=O)C(=O)NCC(=O)N[C@@H](CCC(=O)O)C(=O)N[C@@H](CO)C(=O)N[C@@H](CC(N)=O)C(=O)N[C@@H](CCC(N)=O)C(=O)N[C@@H](CCC(=O)O)C(=O)N[C@@H](CCCNC(=N)N)C(=O)NCC(=O)N[C@@H](C)C(=O)N[C@@H](CCCNC(=N)N)C(=O)N[C@@H](C)C(=O)N[C@@H](CCCNC(=N)N)C(=O)N[C@@H](CC(C)C)C(=O)O)[C@@H](C)CC)C(C)C)[C@@H](C)O [(Leu^27)-GRF(1-44)-OH] | – | 1.063 | about the same level as GRF(1-44)-NH2 or slightly higher | 162 Percentage of Control | 133 ng/mL | 204 Percentage of Control | 167 ng/mL | 272 Percentage of Control | 223 ng/mL | 329 Percentage of Control | 270 ng/mL | 417 Percentage of Control | 342 ng/mL | 516 Percentage of Control | 423 ng/mL | 649 Percentage of Control | 532 ng/mL | on the order of ten times or more the amount of (Leu^27)-GRF-OH administered
